Assay results as given in PMC7461584, “N-(2′-Hydroxyphenyl)-2-Propylpentanamide (HO-AAVPA) Inhibits HDAC1 and Increases the Translocation of HMGB1 Levels in Human Cervical Cancer Cells” (International Journal of Molecular Sciences, 2020).
“And” between values parts separate entries of the source, which are not always exact repeats. Equal entries are not always repeated. “Also recorded” adds a separate entry of the source.

Legend:
[1] = biological target: T1, HDAC1 (Homo sapiens, UniProt Q13547); experiment: Fluor de LYS HDAC1 inhibitory activity assay; type: biochemical; settings: 250 ng/well, 37 °C, 5 µM substrate; mean ± SE
T1 construct: purchased Enzo Life Sciences BML-AK511

[2] = biological target: T2, HDAC6 (Homo sapiens, UniProt Q9UBN7); experiment: Fluor de LYS HDAC6 inhibitory activity assay; type: biochemical
T2 construct: purchased Enzo Life Sciences BML-AK516
T2 sequence (Q9UBN7 1-1215): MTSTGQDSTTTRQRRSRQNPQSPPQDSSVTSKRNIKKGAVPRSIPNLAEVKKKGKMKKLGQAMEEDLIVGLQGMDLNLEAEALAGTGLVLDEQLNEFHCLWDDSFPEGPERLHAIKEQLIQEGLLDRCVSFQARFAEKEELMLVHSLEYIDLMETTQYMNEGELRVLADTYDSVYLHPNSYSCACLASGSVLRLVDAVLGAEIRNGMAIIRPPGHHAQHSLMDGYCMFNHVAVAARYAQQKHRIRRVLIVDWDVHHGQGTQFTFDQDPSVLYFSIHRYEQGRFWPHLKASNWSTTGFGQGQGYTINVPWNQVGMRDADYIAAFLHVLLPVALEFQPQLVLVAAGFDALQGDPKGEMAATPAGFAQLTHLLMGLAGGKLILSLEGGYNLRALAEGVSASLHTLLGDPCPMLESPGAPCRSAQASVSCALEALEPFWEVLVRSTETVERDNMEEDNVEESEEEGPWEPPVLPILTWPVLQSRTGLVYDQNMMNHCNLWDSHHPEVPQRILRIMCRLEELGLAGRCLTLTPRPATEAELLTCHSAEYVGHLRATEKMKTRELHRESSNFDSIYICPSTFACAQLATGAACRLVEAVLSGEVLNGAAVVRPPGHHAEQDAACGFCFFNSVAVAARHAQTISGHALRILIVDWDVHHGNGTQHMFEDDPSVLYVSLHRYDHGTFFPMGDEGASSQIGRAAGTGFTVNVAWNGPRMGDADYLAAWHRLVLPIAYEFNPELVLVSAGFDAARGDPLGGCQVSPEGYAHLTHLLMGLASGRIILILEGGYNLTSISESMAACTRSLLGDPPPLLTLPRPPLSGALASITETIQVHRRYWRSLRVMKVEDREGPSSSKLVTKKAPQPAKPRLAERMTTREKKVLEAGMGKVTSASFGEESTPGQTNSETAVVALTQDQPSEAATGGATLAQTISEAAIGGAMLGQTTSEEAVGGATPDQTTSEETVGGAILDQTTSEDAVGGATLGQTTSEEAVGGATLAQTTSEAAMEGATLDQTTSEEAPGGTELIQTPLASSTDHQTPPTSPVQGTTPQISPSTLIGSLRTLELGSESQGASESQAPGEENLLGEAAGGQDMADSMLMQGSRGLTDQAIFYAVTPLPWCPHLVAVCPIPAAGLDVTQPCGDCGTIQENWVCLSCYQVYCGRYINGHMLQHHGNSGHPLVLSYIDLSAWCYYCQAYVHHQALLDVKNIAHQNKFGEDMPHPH

[3] = tested on: ROS (O2−·) levels in SiHa cells; experiment: Quantification of superoxide anion by electronic paramagnetic resonance; type: cell-based, human; settings: 48 h
Experimental: The SiHa cells (500 × 10^3) were seeded in a […] dish and kept at 37 °C in a humidified atmosphere with 5% CO2 until they reached 70% confluence. After, the cells were treated with two different concentrations of VPA and HO-AAVPA (1.4 and 0.2 mM) and maintained for 48 h, the experiment was performed in triplicate and used as a control for data comparison with the SiHa cells treated only with medium. Next, the cells were trypsinized and centrifuged at 3000 rpm for 10 min, and the cell pellet was treated with the radical scavenger CM-H (1 hydroxy-3-methoxycarbonyl-2,2, 5,5-tetramethyl pyrrolidine) diluted in Krebs buffer (99 mM NaCl, 4.69 mM KCl, 2.5 mM CaCl2 × 2H2O, 1.2 mM MgSO4 × 7 H2O, 2.5 mM NaHCO3, 1.03 mM KH2PO4, 5.6 mM D-Glucose, and 20 mM Na-HEPES) with sodium diethyldithiocarbamate trihydrate (DETEC; 5 μM) and deferoxamine methane sulfonate salt (DF 25 μM) at a 89:3:8% v/v ratio of Krebs buffer: DETEC:DF. The stock solution of CMH (10 mM) was used to dilute each sample to 0.5 mM. The CM-H solution and the sample preparation were processed inside a nitrogen atmosphere chamber. The samples containing CM-H were incubated for 30 min at 37 °C with constant shaking. After the samples were centrifuged at 3000 rpm for 15 min, 50 µL of the supernatant was taken up with capillaries (Corning, Glendale, CA, USA) inside the nitrogen chamber, and each of the capillaries were sealed on both sides to determine the EPR measurements.
The measurements of O2^−· formation were performed in a Bruker e-scan spectrometer with the following parameters recorded: magnetic field 3490 G, window: 60 G, amplitude: 1.5 G, gain: 56.4, power: 0.0155 mW; and frequency: 9.743 GHz. WinEPR Acquisition software was used to analyze the results. The intensity of each sample was measured and normalized to the cell number for each sample. Finally, the result was expressed as the intensity for 10,000 cells.

[4] = biological target: T3, HDAC8 (Homo sapiens, UniProt Q9BY41); experiment: Fluor de LYS HDAC8 inhibitory activity assay; type: biochemical
T3 construct: purchased Enzo Life Sciences BML-AK518
T3 sequence (Q9BY41 1-377): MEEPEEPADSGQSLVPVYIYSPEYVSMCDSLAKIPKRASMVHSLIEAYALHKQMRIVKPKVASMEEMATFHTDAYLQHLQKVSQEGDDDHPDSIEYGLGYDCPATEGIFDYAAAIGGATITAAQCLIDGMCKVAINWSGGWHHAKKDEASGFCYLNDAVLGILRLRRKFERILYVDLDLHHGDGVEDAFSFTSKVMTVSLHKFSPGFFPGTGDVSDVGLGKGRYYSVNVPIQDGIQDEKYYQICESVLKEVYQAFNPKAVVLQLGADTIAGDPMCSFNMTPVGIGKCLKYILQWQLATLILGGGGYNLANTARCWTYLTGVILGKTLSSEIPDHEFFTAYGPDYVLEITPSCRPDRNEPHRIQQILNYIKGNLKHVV

[5] = tested on: SiHa cells; experiment: Cell viability by MTT assay; type: cell-based, human; settings: 48 h
Experimental: (§1) SiHa cells were kindly donated by Dr. Nicolás Villegas Sepulveda from the Department of Molecular Biomedicine, […], México. SiHa cells were cultured in Dulbecco’s modified Eagle’s medium (DMEM Gibco, Life Technologies, Invitrogen, Sigma-Aldrich Co., Toluca City Mexico), supplemented with 10% fetal bovine serum (FBS, Biowest, Kansas City, MO, USA) and antibiotic and antimycotic agents (Gibco, Fisher Scientific UK Ltd, Loughborough, UK). The cultures were kept at 37 °C in a humidified atmosphere with 5% CO2.
(§2) After seeding 10 × 10^3 cells per well in transparent 96-well plates, the cells were incubated for 24 h in DMEM medium with FBS. Then, the cells were incubated with different concentrations of HO-AAVPA (0.5, 1.0, 1.5, 2.0, and 2.5 mM) and VPA (0.625, 1.25, 2.5, 5.0, and 7.5 mM). After 48 h of incubation, the supernatant was removed. Then, 20 μL of MTT solution (0.5 mg/mL) in buffer was added, and the cells were incubated at 37 °C for 4 h. After the MTT solution was removed from all the wells, the formazan salts were solubilized with 100 μL of DMSO, and the absorbance of each well was read at 550 nm on a spectrophotometer (Multiskan EX Microplate Photometer, Thermo Scientific, Mexico).

[6] = Cell viability by MTT assay; type: cell-based, human; settings: human, SiHa cells, at 2.5 mM
Experimental: as §1, §2

[7] = tested on: HMGB1 in SiHa cells; experiment: Localization of HMGB1 by confocal microscopy; type: cell-based, human; settings: 12 h; for HMGB1 fluorescence intensity: vs DMSO vehicle
Experimental: A total of 20 × 10^3 cells per well were added to 24-well plates and incubated for 24 h in DMEM with FBS. Then, the cells were washed with phosphate buffered saline (PBS 1X). The groups received the following treatments: VPA at 1.4 and 0.35 mM, HO-AAVPA at 0.2 and 0.005 mM, vehicle (DMSO 0.1%), and incubated for 12 h. After incubation, the cells were fixed with paraformaldehyde (PFA 4%) at 37 °C for 20 min and permeabilized (PBS Tween-Triton 0.5%) for 5 min. Subsequently, the cells were washed and the primary antibody, anti-HMGB1 (GTX101277, GeneTex, Alton Pkwy Irvine, CA, USA), was added at a ratio of 1:1000 and incubated overnight. The secondary antibody, donkey anti-rabbit IgG H&L (Alexa Fluor 647, Thermo Fisher Scientific, México City, Mexico), was added at a ratio of 1:1000 and incubated at 4 °C for 4 h. Finally, the slides were washed with PBS and mounted with Vectashield (Mounting Laboratories, Inc. Burlingame, CA, USA).
The images were collected and analyzed with an Axioskop 2 mot plus confocal fluorescence microscope (Carl Zeiss, Mexico City, Mexico) at EC Plan-Neofluar 20×–40×/0.5 Ph2: LP 650, LP 505.

[8] = parameters: method as in PMID 32387339, PMID 30236821, PMID 3146521; settings: rat model; ref [19],[20],[21]; cited from earlier work
[9] = tested on: cervical cancer cells; parameters: method as in PMID 26942921; settings: ref [25], cited from earlier work

T1 sequence (Q13547 whole entry): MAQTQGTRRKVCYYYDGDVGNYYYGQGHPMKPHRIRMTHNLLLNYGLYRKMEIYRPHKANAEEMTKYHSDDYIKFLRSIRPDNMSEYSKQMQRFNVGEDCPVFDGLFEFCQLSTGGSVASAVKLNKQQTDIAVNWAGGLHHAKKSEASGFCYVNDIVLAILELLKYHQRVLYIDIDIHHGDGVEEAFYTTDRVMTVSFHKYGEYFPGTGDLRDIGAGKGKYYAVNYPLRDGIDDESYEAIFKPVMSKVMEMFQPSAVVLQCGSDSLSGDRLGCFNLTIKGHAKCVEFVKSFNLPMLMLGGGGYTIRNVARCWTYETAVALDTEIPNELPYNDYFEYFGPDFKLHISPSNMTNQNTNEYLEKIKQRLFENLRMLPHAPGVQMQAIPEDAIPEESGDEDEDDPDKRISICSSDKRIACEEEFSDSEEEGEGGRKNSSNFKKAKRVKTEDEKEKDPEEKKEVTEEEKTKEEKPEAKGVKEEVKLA

In the case of `CCCC(CCC)C(=O)Nc1ccccc1O` [HO-AAVPA, N-(2′-hydroxyphenyl)-2-propylpentanamide], the IC50 [1] is reported as 153 µM and 154 µM, the IC50 ([2]; 400 ng/well, 37 °C, 12 µM substrate, mean ± SE) is reported as > 1000 µM and the “inhibitory activity on HDAC6” value ([2]; tested at 1-1000 µM) is reported as “no inhibitory activity; also recorded: no inhibition was observed”. The “ROS (O2−·) production” value ([3]; 0.2 mM) was “slightly lower, but still higher than the control”, the “ROS (O2−·) production” value ([3]; 1.4 mM) was “ROS production was greater; also recorded: increased” and the IC50 ([4]; 1 U/well, 30 °C, 50 µM substrate, mean ± SE) was > 1000 µM. For the same compound, the “inhibitory activity on HDAC8” value ([4]; tested at 1-1000 µM) was “no inhibitory activity; also recorded: no inhibition was observed”, the “concentration causing cell death” value ([5]; concentration-dependent) was ≥ 1 mM and the IC50 ([5]; Homo sapiens, SiHa, MTT) was 1600 µM. The viability at 48 h, 2.5 mM [6] was ~25%, the HMGB1 localization ([7]; HO-AAVPA 0.2 mM, VPA 1.4 mM) was “high amount of HMGB1 in the cytoplasm than in the nucleus; also recorded: greater intensity of translocation of HMGB1 from the nucleus to the cytoplasm” and the HMGB1 fluorescence intensity ([7]; HO-AAVPA 0.2 mM, VPA 1.4 mM) was “increase in the fluorescence was more; also recorded: significant increase of HMGB1; also recorded: statistically higher”. The HMGB1 localization ([7]; low concentrations: HO-AAVPA 0.005 mM, VPA 0.35 mM) was “more HMGB1 in the cytoplasm than VPA” and the half-life [8] was 4 h.
With `CCCC(CCC)C(=O)O` [VPA, valproic acid, reference compound] the “ROS (O2−·) production” value ([3]; 0.2 mM) was “did not have a significant difference in ROS production”, the “ROS (O2−·) production” value ([3]; 1.4 mM) was “did not have a significant difference in ROS production” and the HMGB1 localization ([7]; HO-AAVPA 0.2 mM, VPA 1.4 mM) was “HMGB1 is expressed in a larger amount in the nucleus; also recorded: observed predominantly in the nucleus”. The HMGB1 fluorescence intensity ([7]; HO-AAVPA 0.2 mM, VPA 1.4 mM) was “increase in the fluorescence was more; also recorded: significant increase of HMGB1”, the half-life [8] was 1 h and the “concentration that did not produce significant effect on the proliferation” value ([9]; cervical cancer cells) was 1 mM. For the same compound, the “concentration with cytotoxic effects” value ([9]; other studies) was ~3000 µM.
